Measured values reported in the supplement of paper PMC13207355.
Where a name gives a salt, the structure may show the parent alone.

Assays:
Conditions in all cases: exposure time: 72 h
[1] = system: E57 (patient-derived glioblastoma stem cells of mesenchymal subtype); test: surviving fraction (nuclei count normalised to DMSO); higher = more cells surviving (less toxic)
[2] = system: FT3469 (normal neural stem cell line); test: as above
[3] = system: E34 (patient-derived glioblastoma stem cells of proneural subtype); test: as above
[4] = system: E28 (patient-derived glioblastoma stem cells of classical subtype); test: as above
[5] = system: E13 (patient-derived glioblastoma stem cells of classical subtype); test: as above
[6] = system: E21 (patient-derived glioblastoma stem cells of mesenchymal subtype); test: as above
[7] = system: E31 (patient-derived glioblastoma stem cells of proneural subtype); test: as above
[8] = system: E57; test: phenotypic distance (Euclidean, principal components) from DMSO controls (arbitrary units); higher = stronger morphological change
[9] = system: FT3469; test: as above
[10] = system: E34; test: as above
[11] = system: E28; test: as above
[12] = system: E13; test: as above
[13] = system: E21; test: as above
[14] = system: E31; test: as above
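Wherever phenotypic distance (Euclidean, principal components) from DMSO controls is given: cell Painting imaging in 384-well plates, CellProfiler features reduced to at least 20 principal components, Euclidean distance versus same-plate DMSO vehicle wells (0.1% v/v), median over six images per well.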
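Wherever surviving fraction (nuclei count normalised to DMSO) is given: nuclei counted by high-content imaging of Hoechst-stained cells in laminin-coated 384-well plates, relative to 0.1% DMSO vehicle wells, with staurosporine as cell-death control.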

Nc1ccn([C@@H]2O[C@H](CO)[C@@H](O)C2(F)F)c(=O)n1 [Gemcitabine HCl]
Conditions | phenotypic distance | surviving fraction
[1], 4.1 nM | – | 0.168
[1], 12.3 nM | – | 0.168
[1], 37 nM | – | 0.156
[1], 111.1 nM | – | 0.165
[1], 333.3 nM | – | 0.139
[1], 1000 nM | – | 0.159
[1], 3000 nM | – | 0.149
[2], 4.1 nM | – | 0.53
[2], 12.3 nM | – | 0.842
[2], 37 nM | – | 0.616
[2], 111.1 nM | – | 0.663
[2], 333.3 nM | – | 0.566
[2], 1000 nM | – | 0.568
[2], 3000 nM | – | 0.645
[3], 4.1 nM | – | 0.494
[3], 12.3 nM | – | 0.545
[3], 37 nM | – | 0.509
[3], 111.1 nM | – | 0.52
[3], 333.3 nM | – | 0.549
[3], 1000 nM | – | 0.496
[3], 3000 nM | – | 0.415
[4], 4.1 nM | – | 0.359
[4], 12.3 nM | – | 0.438
[4], 37 nM | – | 0.376
[4], 111.1 nM | – | 0.456
[4], 333.3 nM | – | 0.401
[4], 1000 nM | – | 0.361
[4], 3000 nM | – | 0.264
[5], 4.1 nM | – | 0.327
[5], 12.3 nM | – | 0.326
[5], 37 nM | – | 0.331
[5], 111.1 nM | – | 0.351
[5], 333.3 nM | – | 0.32
[5], 1000 nM | – | 0.333
[5], 3000 nM | – | 0.352
[6], 4.1 nM | – | 0.161
[6], 12.3 nM | – | 0.173
[6], 37 nM | – | 0.126
[6], 111.1 nM | – | 0.143
[6], 333.3 nM | – | 0.147
[6], 1000 nM | – | 0.129
[6], 3000 nM | – | 0.0999
[7], 4.1 nM | – | 0.147
[7], 12.3 nM | – | 0.249
[7], 37 nM | – | 0.161
[7], 111.1 nM | – | 0.229
[7], 333.3 nM | – | 0.201
[7], 1000 nM | – | 0.199
[7], 3000 nM | – | 0.161
[8], 4.1 nM | 6.66 | –
[8], 12.3 nM | 8.21 | –
[8], 37 nM | 6.89 | –
[8], 111.1 nM | 7.27 | –
[8], 333.3 nM | 7.04 | –
[8], 1000 nM | 7.07 | –
[8], 3000 nM | 6.77 | –
[9], 4.1 nM | 1.82 | –
[9], 12.3 nM | 1.99 | –
[9], 37 nM | 2.01 | –
[9], 111.1 nM | 2.15 | –
[9], 333.3 nM | 1.98 | –
[9], 1000 nM | 1.8 | –
[9], 3000 nM | 1.5 | –
[10], 4.1 nM | 3.49 | –
[10], 12.3 nM | 2.98 | –
[10], 37 nM | 3.41 | –
[10], 111.1 nM | 4.74 | –
[10], 333.3 nM | 3.17 | –
[10], 1000 nM | 2.85 | –
[10], 3000 nM | 2.83 | –
[11], 4.1 nM | 3.94 | –
[11], 12.3 nM | 3.54 | –
[11], 37 nM | 3.74 | –
[11], 111.1 nM | 3.43 | –
[11], 333.3 nM | 3.31 | –
[11], 1000 nM | 3.19 | –
[11], 3000 nM | 4.17 | –
[12], 4.1 nM | 5.82 | –
[12], 12.3 nM | 5.84 | –
[12], 37 nM | 5.64 | –
[12], 111.1 nM | 4.94 | –
[12], 333.3 nM | 6.22 | –
[12], 1000 nM | 5.7 | –
[12], 3000 nM | 5.74 | –
[13], 4.1 nM | 4.04 | –
[13], 12.3 nM | 4.48 | –
[13], 37 nM | 4.76 | –
[13], 111.1 nM | 5.02 | –
[13], 333.3 nM | 4.71 | –
[13], 1000 nM | 4.97 | –
[13], 3000 nM | 4.67 | –
[14], 4.1 nM | 3.35 | –
[14], 12.3 nM | 2.57 | –
[14], 37 nM | 3.01 | –
[14], 111.1 nM | 2.66 | –
[14], 333.3 nM | 2.37 | –
[14], 1000 nM | 3 | –
[14], 3000 nM | 3.64 | –

O=c1[nH]c(=O)n([C@H]2C[C@H](O)[C@@H](CO)O2)cc1I [Idoxuridine]
Conditions | phenotypic distance | surviving fraction
[1], 4.1 nM | – | 1.04
[1], 12.3 nM | – | 1.02
[1], 37 nM | – | 0.958
[1], 111.1 nM | – | 0.992
[1], 333.3 nM | – | 1.01
[1], 1000 nM | – | 0.99
[1], 3000 nM | – | 0.867
[2], 4.1 nM | – | 0.845
[2], 12.3 nM | – | 1.33
[2], 37 nM | – | 0.987
[2], 111.1 nM | – | 0.845
[2], 333.3 nM | – | 1.18
[2], 1000 nM | – | 0.86
[2], 3000 nM | – | 1.07
[3], 4.1 nM | – | 0.86
[3], 12.3 nM | – | 1
[3], 37 nM | – | 1.04
[3], 111.1 nM | – | 0.92
[3], 333.3 nM | – | 1.03
[3], 1000 nM | – | 0.959
[3], 3000 nM | – | 1.01
[4], 4.1 nM | – | 1.11
[4], 12.3 nM | – | 0.859
[4], 37 nM | – | 1.06
[4], 111.1 nM | – | 1.12
[4], 333.3 nM | – | 0.97
[4], 1000 nM | – | 0.76
[4], 3000 nM | – | 0.954
[5], 4.1 nM | – | 0.99
[5], 12.3 nM | – | 0.847
[5], 37 nM | – | 0.893
[5], 111.1 nM | – | 0.967
[5], 333.3 nM | – | 0.953
[5], 1000 nM | – | 1.02
[5], 3000 nM | – | 1.06
[6], 4.1 nM | – | 0.958
[6], 12.3 nM | – | 0.967
[6], 37 nM | – | 1
[6], 111.1 nM | – | 0.893
[6], 333.3 nM | – | 1.01
[6], 1000 nM | – | 0.969
[6], 3000 nM | – | 0.986
[7], 4.1 nM | – | 0.736
[7], 12.3 nM | – | 1.04
[7], 37 nM | – | 0.782
[7], 111.1 nM | – | 1.15
[7], 333.3 nM | – | 0.725
[7], 1000 nM | – | 0.982
[7], 3000 nM | – | 0.787
[8], 4.1 nM | 0.916 | –
[8], 12.3 nM | 0.612 | –
[8], 37 nM | 0.986 | –
[8], 111.1 nM | 1.62 | –
[8], 333.3 nM | 0.906 | –
[8], 1000 nM | 1.14 | –
[8], 3000 nM | 1.5 | –
[9], 4.1 nM | 0.962 | –
[9], 12.3 nM | 1.15 | –
[9], 37 nM | 0.953 | –
[9], 111.1 nM | 0.541 | –
[9], 333.3 nM | 1.76 | –
[9], 1000 nM | 0.62 | –
[9], 3000 nM | 0.72 | –
[10], 4.1 nM | 0.63 | –
[10], 12.3 nM | 0.803 | –
[10], 37 nM | 0.845 | –
[10], 111.1 nM | 0.69 | –
[10], 333.3 nM | 0.689 | –
[10], 1000 nM | 0.829 | –
[10], 3000 nM | 1.45 | –
[11], 4.1 nM | 0.822 | –
[11], 12.3 nM | 0.591 | –
[11], 37 nM | 0.96 | –
[11], 111.1 nM | 0.701 | –
[11], 333.3 nM | 0.922 | –
[11], 1000 nM | 0.762 | –
[11], 3000 nM | 1.1 | –
[12], 4.1 nM | 1.19 | –
[12], 12.3 nM | 1.08 | –
[12], 37 nM | 1.53 | –
[12], 111.1 nM | 0.919 | –
[12], 333.3 nM | 0.742 | –
[12], 1000 nM | 1.06 | –
[12], 3000 nM | 0.576 | –
[13], 4.1 nM | 0.811 | –
[13], 12.3 nM | 1.68 | –
[13], 37 nM | 1.77 | –
[13], 111.1 nM | 0.694 | –
[13], 333.3 nM | 1.11 | –
[13], 1000 nM | 1.12 | –
[13], 3000 nM | 1.56 | –
[14], 4.1 nM | 1.23 | –
[14], 12.3 nM | 0.821 | –
[14], 37 nM | 0.938 | –
[14], 111.1 nM | 0.814 | –
[14], 333.3 nM | 0.763 | –
[14], 1000 nM | 0.973 | –
[14], 3000 nM | 0.756 | –
